Test results as given in patent publication US20220169632A1, “METHODS AND MATERIALS FOR INCREASING OR MAINTAINING NICOTINAMIDE MONONUCLEOTIDE ADENYLYL TRANSFERASE-2 (NMNAT2) POLYPEPTIDE LEVELS” (University of Pittsburgh - Of the Commonwealth System of …, priority 2019, published 2022).

System: NMNAT2
Test: NMNAT2-Hibit nano-luciferase activity in stably transfected U87MG cells, various concentrations, 24 hours
Assay type: cell-based
Details: U87MG cells stably transfected with NMNAT2-Hibit luc plasmid
Protocol: Selected compounds were tested in vitro. U87MG cells were stably transfected with NMNAT2-Hibit luc plasmid. Cells were treated with a test compound at various concentrations for 24 hours. Cells were then collected and assayed for nano-luciferase activity.

## Cc1ccccc1Cn1cc(CCCC(=O)Nc2cccc(C)c2C)c2ccccc21 [BC20161]
  E: compound efficacy for NMNAT2 activation (concentration giving >25% increase in NMNAT2 luciferase activity): ++ (“++” >25% increase in NMNAT2 luciferase activity at >1 μM ≤25 μM.)

## CCCCN(CC)Cc1ccc(CNC(=O)CCCc2cn(Cc3ccccc3C)c3ccccc23)o1 [BC20162]
  E: compound efficacy for NMNAT2 activation (concentration giving >25% increase in NMNAT2 luciferase activity): +++ (“+++” >25% increase in NMNAT2 luciferase activity at ≤1 μM.)

## Cc1cccc(Cn2cc(CCCC(=O)NCc3ccco3)c3ccccc32)c1 [BC20163]
  E: compound efficacy for NMNAT2 activation (concentration giving >25% increase in NMNAT2 luciferase activity): +++ (“+++” >25% increase in NMNAT2 luciferase activity at ≤1 μM.)

## Cc1cccc(Cn2cc(CCCC(=O)NCc3ccc(C)o3)c3ccccc32)c1 [BC20164]
  E: compound efficacy for NMNAT2 activation (concentration giving >25% increase in NMNAT2 luciferase activity): +++ (“+++” >25% increase in NMNAT2 luciferase activity at ≤1 μM.)

## Cc1cccc(Cn2cc(CCCC(=O)NCc3ccccc3F)c3ccccc32)c1 [BC20165]
  E: compound efficacy for NMNAT2 activation (concentration giving >25% increase in NMNAT2 luciferase activity): +++ (“+++” >25% increase in NMNAT2 luciferase activity at ≤1 μM.)

## Cc1cccc(Cn2cc(CCCC(=O)NCc3cccc(F)c3)c3ccccc32)c1 [BC20166]
  E: compound efficacy for NMNAT2 activation (concentration giving >25% increase in NMNAT2 luciferase activity): ++ (“++” >25% increase in NMNAT2 luciferase activity at >1 μM ≤25 μM.)

## Cc1cccc(Cn2cc(CCCC(=O)NCc3ccccc3C)c3ccccc32)c1 [BC20167]
  E: compound efficacy for NMNAT2 activation (concentration giving >25% increase in NMNAT2 luciferase activity): +++ (“+++” >25% increase in NMNAT2 luciferase activity at ≤1 μM.)

## Cc1cccc(CNC(=O)CCCc2cn(Cc3cccc(C)c3)c3ccccc23)c1 [BC20168]
  E: compound efficacy for NMNAT2 activation (concentration giving >25% increase in NMNAT2 luciferase activity): ++ (“++” >25% increase in NMNAT2 luciferase activity at >1 μM ≤25 μM.)

## COc1cccc(CNC(=O)CCCc2cn(Cc3cccc(C)c3)c3ccccc23)c1 [BC20169]
  E: compound efficacy for NMNAT2 activation (concentration giving >25% increase in NMNAT2 luciferase activity): ++ (“++” >25% increase in NMNAT2 luciferase activity at >1 μM ≤25 μM.)

## Cc1cccc(Cn2cc(CCCC(=O)N3CCN(C(=O)c4ccco4)CC3)c3ccccc32)c1 [BC20170]
  E: compound efficacy for NMNAT2 activation (concentration giving >25% increase in NMNAT2 luciferase activity): ++ (“++” >25% increase in NMNAT2 luciferase activity at >1 μM ≤25 μM.)

## Cc1cccc(Cn2cc(CCCC(=O)NC(C)Cc3ccco3)c3ccccc32)c1 (stereo not shown) [BC20171]
  E: compound efficacy for NMNAT2 activation (concentration giving >25% increase in NMNAT2 luciferase activity): +++ (“+++” >25% increase in NMNAT2 luciferase activity at ≤1 μM.)

## Cc1cccc(Cn2cc(CCCC(=O)NCCc3ccccc3)c3ccccc32)c1 [BC20172]
  E: compound efficacy for NMNAT2 activation (concentration giving >25% increase in NMNAT2 luciferase activity): ++ (“++” >25% increase in NMNAT2 luciferase activity at >1 μM ≤25 μM.)

## Cc1cccc(Cn2cc(CCCC(=O)NCc3cccnc3)c3ccccc32)c1 [BC20173]
  E: compound efficacy for NMNAT2 activation (concentration giving >25% increase in NMNAT2 luciferase activity): ++ (“++” >25% increase in NMNAT2 luciferase activity at >1 μM ≤25 μM.)

## Cc1cccc(Cn2cc(CCCC(=O)NCc3ccncc3)c3ccccc32)c1 [BC20174]
  E: compound efficacy for NMNAT2 activation (concentration giving >25% increase in NMNAT2 luciferase activity): ++ (“++” >25% increase in NMNAT2 luciferase activity at >1 μM ≤25 μM.)

## Cc1cccc(Cn2cc(CCCC(=O)Nc3cccc(C)c3C)c3ccccc32)c1 [BC20175]
  E: compound efficacy for NMNAT2 activation (concentration giving >25% increase in NMNAT2 luciferase activity): ++ (“++” >25% increase in NMNAT2 luciferase activity at >1 μM ≤25 μM.)

## Cc1ccc(CNC(=O)Cn2cc(C(=O)c3ccc(Cl)cc3)c3ccccc32)o1 [BC20176]
  E: compound efficacy for NMNAT2 activation (concentration giving >25% increase in NMNAT2 luciferase activity): ++ (“++” >25% increase in NMNAT2 luciferase activity at >1 μM ≤25 μM.)

## O=C(Cn1cc(C(=O)c2ccc(Cl)cc2)c2ccccc21)NCc1ccccc1F [BC20177]
  E: compound efficacy for NMNAT2 activation (concentration giving >25% increase in NMNAT2 luciferase activity): +++ (“+++” >25% increase in NMNAT2 luciferase activity at ≤1 μM.)

## Cc1ccccc1CNC(=O)Cn1cc(C(=O)c2ccc(Cl)cc2)c2ccccc21 [BC20178]
  E: compound efficacy for NMNAT2 activation (concentration giving >25% increase in NMNAT2 luciferase activity): ++ (“++” >25% increase in NMNAT2 luciferase activity at >1 μM ≤25 μM.)

## Cc1cccc(CNC(=O)Cn2cc(C(=O)c3ccc(Cl)cc3)c3ccccc32)c1 [BC20179]
  E: compound efficacy for NMNAT2 activation (concentration giving >25% increase in NMNAT2 luciferase activity): ++ (“++” >25% increase in NMNAT2 luciferase activity at >1 μM ≤25 μM.)

## COc1ccccc1CNC(=O)Cn1cc(C(=O)c2ccc(Cl)cc2)c2ccccc21 [BC20180]
  E: compound efficacy for NMNAT2 activation (concentration giving >25% increase in NMNAT2 luciferase activity): ++ (“++” >25% increase in NMNAT2 luciferase activity at >1 μM ≤25 μM.)

## COc1cccc(CNC(=O)Cn2cc(C(=O)c3ccc(Cl)cc3)c3ccccc32)c1 [BC20181]
  E: compound efficacy for NMNAT2 activation (concentration giving >25% increase in NMNAT2 luciferase activity): ++ (“++” >25% increase in NMNAT2 luciferase activity at >1 μM ≤25 μM.)

## O=C(c1ccc(Cl)cc1)c1cn(CC(=O)N2CCN(C(=O)c3ccco3)CC2)c2ccccc12 [BC20182]
  E: compound efficacy for NMNAT2 activation (concentration giving >25% increase in NMNAT2 luciferase activity): + (“+” >25% increase in NMNAT2 luciferase activity at >25 μM.)

## Cc1ccc(C)c(Cn2c3c(c4ccccc42)CC(C(=O)NCc2ccc(C)o2)CC3)c1 (stereo not shown) [BC20183]
  E: compound efficacy for NMNAT2 activation (concentration giving >25% increase in NMNAT2 luciferase activity): + (“+” >25% increase in NMNAT2 luciferase activity at >25 μM.)

## Cc1ccc(C)c(Cn2c3c(c4ccccc42)CC(C(=O)NCc2cccc(F)c2)CC3)c1 (stereo not shown) [BC20184]
  E: compound efficacy for NMNAT2 activation (concentration giving >25% increase in NMNAT2 luciferase activity): + (“+” >25% increase in NMNAT2 luciferase activity at >25 μM.)

## Cc1ccc(C)c(Cn2c3c(c4ccccc42)CC(C(=O)NCc2ccccc2C)CC3)c1 (stereo not shown) [BC20185]
  E: compound efficacy for NMNAT2 activation (concentration giving >25% increase in NMNAT2 luciferase activity): ++ (“++” >25% increase in NMNAT2 luciferase activity at >1 μM ≤25 μM.)

## Cc1cccc(CNC(=O)C2CCc3c(c4ccccc4n3Cc3cc(C)ccc3C)C2)c1 (stereo not shown) [BC20186]
  E: compound efficacy for NMNAT2 activation (concentration giving >25% increase in NMNAT2 luciferase activity): + (“+” >25% increase in NMNAT2 luciferase activity at >25 μM.)

## COc1ccccc1CNC(=O)C1CCc2c(c3ccccc3n2Cc2cc(C)ccc2C)C1 (stereo not shown) [BC20187]
  E: compound efficacy for NMNAT2 activation (concentration giving >25% increase in NMNAT2 luciferase activity): + (“+” >25% increase in NMNAT2 luciferase activity at >25 μM.)

## COc1cccc(CNC(=O)C2CCc3c(c4ccccc4n3Cc3cc(C)ccc3C)C2)c1 (stereo not shown) [BC20188]
  E: compound efficacy for NMNAT2 activation (concentration giving >25% increase in NMNAT2 luciferase activity): ++ (“++” >25% increase in NMNAT2 luciferase activity at >1 μM ≤25 μM.)

## Cc1ccc(C)c(Cn2c3c(c4ccccc42)CC(C(=O)NCc2cccnc2)CC3)c1 (stereo not shown) [BC20189]
  E: compound efficacy for NMNAT2 activation (concentration giving >25% increase in NMNAT2 luciferase activity): ++ (“++” >25% increase in NMNAT2 luciferase activity at >1 μM ≤25 μM.)

## Cc1ccc(C)c(Cn2c3c(c4ccccc42)CC(C(=O)NCc2ccncc2)CC3)c1 (stereo not shown) [BC20190]
  E: compound efficacy for NMNAT2 activation (concentration giving >25% increase in NMNAT2 luciferase activity): + (“+” >25% increase in NMNAT2 luciferase activity at >25 μM.)

## Cc1ccc(Cn2cc(C3=CC(=O)NCC3)c3ccccc32)cc1 [BC20191]
  E: compound efficacy for NMNAT2 activation (concentration giving >25% increase in NMNAT2 luciferase activity): ++ (“++” >25% increase in NMNAT2 luciferase activity at >1 μM ≤25 μM.)

## Cc1ccc(Cn2cc(C3CCNC(=O)C3)c3ccccc32)cc1 (stereo not shown) [BC20192]
  E: compound efficacy for NMNAT2 activation (concentration giving >25% increase in NMNAT2 luciferase activity): ++ (“++” >25% increase in NMNAT2 luciferase activity at >1 μM ≤25 μM.)

## Cc1ccc(CNC(=O)c2ccc3c(c2)c(C)c(C)n3Cc2ccccc2F)o1 [BC20193]
  E: compound efficacy for NMNAT2 activation (concentration giving >25% increase in NMNAT2 luciferase activity): + (“+” >25% increase in NMNAT2 luciferase activity at >25 μM.)

## Cc1c(C)n(Cc2ccccc2F)c2ccc(C(=O)NCC3CCCO3)cc12 (stereo not shown) [BC20194]
  E: compound efficacy for NMNAT2 activation (concentration giving >25% increase in NMNAT2 luciferase activity): + (“+” >25% increase in NMNAT2 luciferase activity at >25 μM.)
